According to US8759051B2, “Control of contaminant microorganisms in fermentation processes with peroxygen-releasing compounds” (E I du Pont de Nemours and Company, priority 2010, dated 2014):

What was measured:
Type in all cases: cell-based
[1] = test system: lactic acid bacteria (LAB); test: Susceptibility of lactic acid bacteria cocktail to sodium percarbonate in diluted molasses (Example 1); details: for LAB level after treatment: approx. 2 hours, 32° C., molasses
Protocol: In this example, the susceptibility of yeast and lactic acid bacteria to sodium percarbonate was determined in molasses. Molasses was prepared by diluting molasses (B&G Foods, Inc., Roseland, N.J.) 1 part to 3.1 parts water to mimic conditions used for ethanol production based on a molasses feedstock (common in Latin America and Asia). The diluted molasses was autoclaved at 121° C. for 15 minutes to sterilize prior to use in the experiment. Cultures of lactic acid bacteria (LAB) (Lactobacillus plantarum, Lactobacillus brevis, Lactobacillus fermentum, and Lactobacillus paracasei) were prepared by inoculating MRS broth (available from Difco Laboratories Inc., Sparks, Md.) and incubating overnight at 32° C. with agitation. The bacteria were selected because they had previously been isolated from contaminated ethanol fermentation processes. Cultures of each organism were combined to create a bacterial cocktail and diluted in molasses to give 1.0×10^7, 1.0×10^6, and 1.0×10^5 bacteria/ml, or commonly expressed as colony forming units per milliliter or CFU/ml). Sodium percarbonate (Alfa Aesar, Ward Hill, Mass.) was prepared as a 2% solution immediately prior to use. Percarbonate was added to tubes containing 25 ml of inoculated molasses to give concentrations of 0, 100, 250, 500 and 1000 ppm. Tubes were incubated at 32° C. with agitation. After approximately 2 hours, bacterial levels present in each tube were enumerated by plating decimal dilutions of molasses onto the surface of MRS agar plates (Difco Laboratories Inc., Sparks, Md.). Plates were incubated overnight at 32° C.

[2] = test system: lactic acid bacteria (LAB); test: Inactivation of LAB in molasses at pH 4.2 and 5.4 (Examples 2 and 3); details: for reduction in the amount of LAB: 2 hours; for reduction in the levels of LAB: 2-hour
Protocol: Molasses (B&G Foods, Inc., Roseland, N.J.) was diluted 1 to 3.1 with water and sterilized as in Example 1. The prepared molasses was then divided into two lots and pH-adjusted using sulfuric acid to approximately pH 4.2 and 5.4, respectively. Cultures of LAB were prepared as in Example 1 and inoculated into the molasses to give approximately 1×10^6 CFU/ml. Sodium percarbonate (Alfa Aesar, Ward Hill, Mass.) was added to give 250, 500, and 750 ppm. […] Levels of LAB were enumerated by dilution and plating onto the surface of MRS agar followed by incubation at 32° C. LAB were enumerated at approximately 2 and 24 hours after the addition of sodium percarbonate.
Molasses was prepared as above and adjusted to pH 4.2 and 5.4 using sulfuric acid. Cultures of lactic acid bacteria were prepared as indicated in Example 1 and inoculated into the molasses to give approximately 10E6 CFU/ml. Levels of bacteria were confirmed by plating serial dilutions of the inoculated molasses onto the surface of MRS agar plates as in Example 1. Calcium peroxide was added at the levels indicated. Bacterial levels were enumerated at 2 and 24 hours following addition as described above.

[3] = test system: lactic acid bacteria (LAB); test: Inactivation of LAB in dilute molasses at pH 5.0 in the presence of yeast Ethanol Red (Example 5); details: for Log CFU/mL of LAB at hour indicated: 32° C.
Protocol: Cultures of lactic acid bacteria (LAB) were prepared as in Example 1 above. Molasses was diluted 1:3.1 with water as in previous examples. The fermenting yeast Ethanol Red was cultured as in example 1. Populations of lactic acid bacteria and yeasts were determined by dilution plating on MRS agar and YPD agar, respectively. Overnight cultures of LAB were mixed to prepare a bacterial cocktail and inoculated into molasses (diluted 1:3.1 with water) adjusted to pH 5.0 to give approximately 6.11 Log CFU/ml. Cultures of yeasts were added to each tube at a concentration of approximately 6.80 Log CFU/ml. […] The amount of UHP added was 1450 ppm. The amount of percarbonate added was 1812 ppm. Tubes were then incubated at 32° C. with agitation. […] Amphotericin inhibits the growth of yeast, facilitating enumeration of bacteria only.

[4] = test system: SuperStart; test: Susceptibility of fermenting yeast to sodium percarbonate in diluted molasses (Example 1, second part); details: for yeast level after treatment: two hours, molasses
Protocol: (§1) In a second part of this Example 1, the yeasts strains Ethanol Red, FermPro S, and SuperStart (commonly used as fermenting yeasts in the ethanol industry) were cultured overnight in Yeast Peptone Dextrose broth (YPD, Difco Laboratories Inc., Sparks, Md.). Individual strains were then suspended in dilute molasses as above to give approximately 1×10^6 CFU/ml and treated with various concentration of percarbonate for two hours as described above.

[5] = test system: Ethanol Red; test: as above; details: for yeast level after treatment: two hours, molasses
Protocol: as §1

[6] = test system: FermPro S; test: as above; details: for yeast level after treatment: two hours, molasses
Protocol: as §1

[7] = 1.0×10^6 CFU/ml, 500 ppm percarbonate

O=C([O-])[O-].O=C([O-])[O-].OO.OO.OO.[Na+].[Na+].[Na+].[Na+] [Sodium percarbonate, sodium percarbonate]
log reductions of LAB ([1]; 1000 ppm percarbonate): > 6 log
LAB level (below detectable limit of the assay) ([1]; 1000 ppm percarbonate, all of the tested levels of LAB): < 10 CFU/ml
reduction in the level of bacteria ([1]; initial LAB 1.0×10^6 or 1.0×10^7 CFU/ml, 500 ppm percarbonate): 2 log
LAB level after treatment ([1]; inoculum 1.0 × 10^5 CFU/ml, 100 ppm percarbonate): 8.90 × 10^4 CFU/ml
LAB level after treatment ([1]; inoculum 1.0 × 10^5 CFU/ml, 250 ppm percarbonate): 1.80 × 10^3 CFU/ml
LAB level after treatment ([1]; inoculum 1.0 × 10^5 CFU/ml, 500 ppm percarbonate): 1.70 × 10^2 CFU/ml
LAB level after treatment ([1]; inoculum 1.0 × 10^5 CFU/ml, 1000 ppm percarbonate): <10 CFU/ml
LAB level after treatment ([1]; inoculum 1.0 × 10^6 CFU/ml, 100 ppm percarbonate): 8.50 × 10^5 CFU/ml
LAB level after treatment ([1]; inoculum 1.0 × 10^6 CFU/ml, 250 ppm percarbonate): 1.55 × 10^5 CFU/ml
LAB level after treatment ([1]; inoculum 1.0 × 10^6 CFU/ml, 500 ppm percarbonate): 1.17 × 10^4 CFU/ml
LAB level after treatment ([1]; inoculum 1.0 × 10^6 CFU/ml, 1000 ppm percarbonate): <10 CFU/ml
LAB level after treatment ([1]; inoculum 1.0 × 10^7 CFU/ml, 100 ppm percarbonate): 6.90 × 10^6 CFU/ml
LAB level after treatment ([1]; inoculum 1.0 × 10^7 CFU/ml, 250 ppm percarbonate): 1.68 × 10^6 CFU/ml
LAB level after treatment ([1]; inoculum 1.0 × 10^7 CFU/ml, 500 ppm percarbonate): 1.20 × 10^5 CFU/ml
LAB level after treatment ([1]; inoculum 1.0 × 10^7 CFU/ml, 1000 ppm percarbonate): <10 CFU/ml
reduction in the level of bacteria ([1]; starting LAB 1.0×10^5 CFU/ml, 500 ppm percarbonate, two hours): ~3 log
CFU/ml LAB at hour indicated ([2]; molasses at pH 4.2, 250 ppm (69 ppm as H2O2), hour 2): 7.85 × 10^5 CFU/ml
CFU/ml LAB at hour indicated ([2]; molasses at pH 4.2, 250 ppm (69 ppm as H2O2), hour 24): 8.75 × 10^4 CFU/ml
CFU/ml LAB at hour indicated ([2]; molasses at pH 4.2, 500 ppm (138 ppm as H2O2), hour 2): 8.40 × 10^5 CFU/ml
CFU/ml LAB at hour indicated ([2]; molasses at pH 4.2, 500 ppm (138 ppm as H2O2), hour 24): 7.90 × 10^6 CFU/ml
CFU/ml LAB at hour indicated ([2]; molasses at pH 4.2, 750 ppm (207 ppm as H2O2), hour 2): 3.10 × 10^5 CFU/ml
CFU/ml LAB at hour indicated ([2]; molasses at pH 4.2, 750 ppm (207 ppm as H2O2), hour 24): 1.50 × 10^3 CFU/ml
CFU/ml LAB at hour indicated ([2]; molasses at pH 5.4, 250 ppm (69 ppm as H2O2), hour 2): 3.95 × 10^5 CFU/ml
CFU/ml LAB at hour indicated ([2]; molasses at pH 5.4, 250 ppm (69 ppm as H2O2), hour 24): 7.50 × 10^1 CFU/ml
CFU/ml LAB at hour indicated ([2]; molasses at pH 5.4, 500 ppm (138 ppm as H2O2), hour 2): 3.85 × 10^4 CFU/ml
CFU/ml LAB at hour indicated ([2]; molasses at pH 5.4, 500 ppm (138 ppm as H2O2), hour 24): 1.50 × 10^1 CFU/ml
CFU/ml LAB at hour indicated ([2]; molasses at pH 5.4, 750 ppm (207 ppm as H2O2), hour 2): 2.80 × 10^4 CFU/ml
CFU/ml LAB at hour indicated ([2]; molasses at pH 5.4, 750 ppm (207 ppm as H2O2), hour 24): <10 CFU/ml
CFU/ml LAB at hour indicated ([2]; molasses at pH 5.4, 750 ppm (207 ppm as H2O2), hour 24, listed as sodium percarbonate): below the detection limit
reduction in the amount of LAB ([2]; molasses pH 4.2, 250 ppm sodium percarbonate): approximately 1 log
reduction in the amount of LAB ([2]; molasses pH 4.2, 500 ppm sodium percarbonate): approximately 1 log
reduction in the amount of LAB ([2]; molasses pH 4.2, 750 ppm sodium percarbonate): approximately 1 log
reduction in the number of LAB ([2]; molasses pH 4.2, 750 ppm sodium percarbonate, 24 hour): more than 3 log units
reduction in the level of LAB ([2]; molasses pH 5.4, 250 ppm sodium percarbonate, 24-hour): ~6 log
reduction in the levels of LAB ([2]; molasses pH 5.4, 500 ppm sodium percarbonate): approximately 2 log
reduction in the levels of LAB ([2]; molasses pH 5.4, 750 ppm sodium percarbonate): approximately 2 log
reduction of the population of LAB ([3]; 500 ppm as H2O2, 2 hours of incubation at 32° C., in presence of yeast): ~5 log units
Log CFU/mL of LAB at hour indicated ([3]; 500 ppm as H2O2, hour 2, molasses pH 5.0, yeast approx. 6.80 Log CFU/ml): 1.95 Log CFU/mL
Log CFU/mL of LAB at hour indicated ([3]; 500 ppm as H2O2, hour 6, molasses pH 5.0, yeast approx. 6.80 Log CFU/ml, listed as percarbonate): <1 Log CFU/mL
Log CFU/mL of LAB at hour indicated ([3]; 500 ppm as H2O2, hour 6, molasses pH 5.0, yeast approx. 6.80 Log CFU/ml, listed as sodium percarbonate): below the detectable limit
reduction in the concentration of yeast [4, 7]: approximately 1 log
yeast level after treatment ([4]; 100 ppm percarbonate): 1.22 × 10^6 CFU/ml
yeast level after treatment ([4]; 250 ppm percarbonate): 3.80 × 10^5 CFU/ml
yeast level after treatment ([4]; 500 ppm percarbonate): 1.07 × 10^5 CFU/ml
yeast level after treatment ([4]; 1000 ppm percarbonate): 6.00 × 10^3 CFU/ml
reduction of yeast [5, 7]: < 1 log
yeast level after treatment ([5]; 100 ppm percarbonate): 7.90 × 10^6 CFU/ml
yeast level after treatment ([5]; 250 ppm percarbonate): 5.00 × 10^6 CFU/ml
yeast level after treatment ([5]; 500 ppm percarbonate): 1.99 × 10^6 CFU/ml
reduction of yeast ([5]; 1000 ppm percarbonate): approximately 1 log
yeast level after treatment ([5]; 1000 ppm percarbonate): 4.90 × 10^5 CFU/ml
reduction of yeast [6, 7]: < 1 log
yeast level after treatment ([6]; 100 ppm percarbonate): 7.30 × 10^6 CFU/ml
yeast level after treatment ([6]; 250 ppm percarbonate): 3.00 × 10^6 CFU/ml
yeast level after treatment ([6]; 500 ppm percarbonate): 1.43 × 10^6 CFU/ml
reduction of yeast ([6]; 1000 ppm percarbonate): approximately 1 log
yeast level after treatment ([6]; 1000 ppm percarbonate): 2.90 × 10^5 CFU/ml
